US20080214556A1 (priority 2007, published 2008)
Where two headings read alike, the source gives them in different places.

Experiments:
[1] = test system: patients with non-ST elevation acute coronary syndrome; assay: MERLIN-TIMI 36: efficacy endpoints (CV death, MI, recurrent ischemia, failure of therapy); assay type: in vivo, human
Excerpt: The MERLIN-TIMI 36 primary efficacy endpoint (ITT) time from randomization to first occurrence of cardiovascular death, myocardial infarction, or recurrent ischemia data is shown in Table 11 below (and FIGS. 4 and 5).
The MERLIN-TIMI 36 major secondary efficacy endpoint (ITT) time from randomization to first occurrence of cardiovascular death, myocardial infarction, or severe recurrent ischemia data is shown in Table 12 below (and FIGS. 6 and 7).
The secondary efficacy endpoint time from randomization to failure of therapy (cardiovascular death, […], recurrent ischemia, positive Holter for ischemia, New/Worsening heart failure, or early+ETT) data from MERLIN-TIMI 36 is shown in Table 14 below (and FIGS. 8 and 9).
The secondary efficacy endpoint (ITT) incidence at 30 days of cardiovascular death, myocardial infarction, severe recurrent ischemia, or positive Holter for ischemia data from MERLIN-TIMI 36 is shown in Table 15 below.
The data for time from randomization to first occurrence of cardiovascular death or myocardial infarction from MERLIN-TIMI 36 is shown in Table 20 below. For relative risk of CV death, MI, or recurrent ischemia by subgroup, see FIG. 10. For relative risk of CV death, MI, or severe recurrent ischemia by subgroup, see FIG. 11. For relative risks of failure of therapy by subgroup, see FIG. 12.

[2] = test system: patients with non-ST elevation acute coronary syndrome; assay: MERLIN-TIMI 36: Seattle Angina Questionnaire scores at 4 months; assay type: in vivo, human; settings: ITT, N 2558
Excerpt: The MERLIN-TIMI 36 secondary efficacy endpoint (ITT) Seattle Angina Questionnaire scores at 4 months for anginal frequency scale are shown in Table 16 below, and scores for physical limitation scale are shown in Table 17 below.

[3] = test system: patients with non-ST elevation acute coronary syndrome; assay: MERLIN-TIMI 36: ischemia on Holter / continuous ECG (CECG) monitoring; assay type: in vivo, human; settings: ranolazine vs placebo
Experimental: At randomization, 6355 patients (99%) had 3-lead CECG monitoring initiated (median duration 6.9 days). The primary CECG endpoint was the rate of ST dep≧1 mm from baseline lasting ≧1 minute with heart rate at onset <100 bpm. Exploratory analyses using ST dep≧0.5 mm were also performed.

[4] = test system: patients with non-ST elevation acute coronary syndrome; assay: MERLIN-TIMI 36: arrhythmias on 7 day continuous ECG (Holter) recording; assay type: in vivo, human
Experimental: The safety endpoint data for incidence of clinically significant arrhythmias during 7 day Holter monitoring from MERLIN-TIMI 36 is shown in Table 24 below.
Continuous ECG (Holter) recording was performed for the first 7 days after randomization. Because of the known prolongation of the QT interval with ranolazine, analyses of a prespecified set of arrhythmias were a major objective of the trial. All arrhythmias were evaluated in the TIMI ECG Core Laboratory by cardiologists blinded to treatment and outcomes.
Continuous ECG (cECG or Holter) recording was performed for the first 7 days after randomization. Prespecified arrhythmia analyses were evaluated by a core laboratory blinded to treatment and outcomes.

[5] = test system: patients with non-ST elevation acute coronary syndrome; assay: MERLIN-TIMI 36: adverse events; assay type: in vivo, human; settings: n = 3268
[6] = test system: patients with non-ST elevation acute coronary syndrome; assay: MERLIN-TIMI 36: HbA1c and hyperglycemia; assay type: in vivo, human
Excerpt: The proportion of patients in the MERLIN-TIMI 36 study with HbA1C≧7% is shown in Table 28 below (and see FIG. 15).
The proportion of patients with HbA1C≧7% (with diabetes or no diabetes) at various times during the MERLIN-TIMI 36 study is shown in Table 29 below (and FIG. 16).
HbA1c data are reported as least-square means. Patients categorized as “diabetic” had been diagnosed as diabetic before or at the time of randomization. Patients categorized as “no diabetes” had not been diagnosed as diabetic before or at the time of randomization. Some patients characterized as “no diabetes” may have been diagnosed as “diabetic” during the trial; however, these patients are still listed in the “no diabetes” category in FIG. 4B.

[7] = test system: patients with non-ST elevation acute coronary syndrome
[8] = ITT, n = 3279, major secondary efficacy endpoint
[9] = ITT, n = 3279, primary efficacy endpoint
[10] = placebo vs ranolazine, cECG monitoring
[11] = patients with DM treated with ranolazine

COc1ccccc1OCC(O)CN1CCN(CC(=O)Nc2c(C)cccc2C)CC1 (racemic) [Ranolazine, (±)—N-(2,6-dimethylphenyl)-4-[2-hydroxy-3-(2-methoxyphenoxy)-propyl]-1-piperazineacetamide]
Incidence (Kaplan-Meier estimate) of CV death or MI ([1]; 30 days, ITT): 4.2%
Incidence (Kaplan-Meier estimate) of CV death, MI, or recurrent ischemia ([1]; 30 days, ITT): 7.7%
Incidence (Kaplan-Meier estimate) of CV death, MI, or severe recurrent ischemia ([1]; 30 days, ITT): 7.5%
Incidence (Kaplan-Meier estimate) of CV death or MI ([1]; 60 days, ITT): 5.3%
Incidence (Kaplan-Meier estimate) of CV death, MI, or recurrent ischemia ([1]; 60 days, ITT): 9.9%
Incidence (Kaplan-Meier estimate) of CV death, MI, or severe recurrent ischemia ([1]; 60 days, ITT): 9.4%
Endpoint-defining events: CV death (%) ([1]; ITT, n = 3279, CV death or MI endpoint): 30.5%
Pts with events: first occurrence of CV death or MI ([1]; ITT, n = 3279, additional efficacy endpoint): 338
Endpoint-defining events: CV death (%) [1, 8]: 14.6%
Pts with events: first occurrence of CV death, MI, or severe recurrent ischemia [1, 8]: 602
Endpoint-defining events: CV death (%) [1, 9]: 12.5%
Pts with events: first occurrence of CV death, MI, or recurrent ischemia [1, 9]: 695
Pts with events: CV death, MI, severe RI, or positive Holter for ischemia (%) ([1]; incidence at 30 days, ITT, n = 3279): 23%
Primary endpoint occurred in (% of patients) ([1]; ranolazine group, Example 7): 21.8%
HR for cardiovascular death or MI ([1]; ranolazine vs placebo): 0.99
HR for recurrent ischemia ([1]; ranolazine vs placebo): 0.87
HR for the primary endpoint ([1]; ranolazine vs placebo): 0.92
Relative risk (SE): CV death, MI, or severe recurrent ischemia ([1]; ranolazine vs placebo, ITT, major secondary efficacy endpoint): 0.982 (0.06)
HR for worsening angina ([1]; women, ranolazine vs placebo): 0.61
Seattle Angina Questionnaire, Anginal Frequency Scale: Median [2]: 100
RR for primary CECG endpoint events ([3]; >72 hours after randomization): 0.86
RR for CECG ischemic events ([3]; lower ischemic threshold of 0.5 mm): 0.91
Any Clinically Significant Arrhythmia during 7 Day Holter (%) ([4]; All Patients Dosed, n = 3268): 71.3%
Bradycardic episode during 7 Day Holter (%) ([4]; All Patients Dosed, n = 3268): 38.5%
New onset atrial fibrillation during 7 Day Holter (%) ([4]; All Patients Dosed, n = 3268): 1.7%
Supraventricular tachycardia during 7 Day Holter (%) ([4]; Any SVT >= 120 bpm, n = 3268): 43.2%
Ventricular tachycardia during 7 Day Holter (%) ([4]; Any VT >= 100 bpm >= 3 beats, n = 3268): 29.0%
Pause > 3 secs (%) ([4]; Holter, first 7 days, n = 3162): (3.1) %
VT >= 8 beats (<30 secs) (%) ([4]; Holter, first 7 days, n = 3162): (5.5) %
New-onset atrial fibrillation (% of patients) ([4]; cECG first 7 days, Example 9): 1.7%
Polymorphic VT >= 8 beats (%) ([4]; cECG monitoring): (1.2) %
Sustained VT (>=30 sec) (%) ([4]; cECG monitoring): (0.44) %
VT ≧ 8 beats (<30 sec) (%) ([4]; cECG monitoring): (5.3) %
VT ≧ 8 beats (<30 sec) (%) ([4]; cECG monitoring, listed as ranolazine): 5.3%
Polymorphic VT >= 8 beats: Δ (%) [4, 10]: −21%
Sustained VT (>=30 sec): Δ [4, 10]: 0
VT ≧ 3 beats (≧100 b/m): Δ (%) [4, 10]: −17%
VT ≧ 4 beats (≧100 b/m): Δ (%) [4, 10]: −30%
VT ≧ 8 beats (<30 sec): Δ (%) [4, 10]: −37%
Adverse event: Angina pectoris (%) ([5]; AE summary > 4% incidence): (8%)
Adverse event: Angina unstable (%) ([5]; AE summary > 4% incidence): (10%)
Adverse event: Asthenia (%) ([5]; AE summary > 4% incidence): (5%)
Adverse event: Cardiac failure (%) ([5]; AE summary > 4% incidence): (5%)
Adverse event: Chest pain (%) ([5]; AE summary > 4% incidence): (11%)
Adverse event: Constipation (%) ([5]; AE summary > 4% incidence): (9%)
Adverse event: Dizziness (%) ([5]; AE summary > 4% incidence): (13%)
Adverse event: Fatigue (%) ([5]; AE summary > 4% incidence): (4%)
Adverse event: Headache (%) ([5]; AE summary > 4% incidence): (7%)
Adverse event: Hypotension (%) ([5]; AE summary > 4% incidence): (5%)
Adverse event: Nausea (%) ([5]; AE summary > 4% incidence): (9%)
Serious adverse event: ACS (%) ([5]; SAEs ≧ 1% incidence): (2%)
Serious adverse event: Acute MI (%) ([5]; SAEs ≧ 1% incidence): (3%)
Serious adverse event: Angina pectoris (%) ([5]; SAEs ≧ 1% incidence): (4%)
Serious adverse event: Angina unstable (%) ([5]; SAEs ≧ 1% incidence): (8%)
Serious adverse event: Atrial fibrillation (%) ([5]; SAEs ≧ 1% incidence): (1%)
Serious adverse event: Cardiac failure (%) ([5]; SAEs ≧ 1% incidence): (4%)
Serious adverse event: Cardiac failure congestive (%) ([5]; SAEs ≧ 1% incidence): (1%)
Serious adverse event: Chest pain (%) ([5]; SAEs ≧ 1% incidence): (2%)
Serious adverse event: MI (%) ([5]; SAEs ≧ 1% incidence): (4%)
Serious adverse event: Syncope (%) ([5]; SAEs ≧ 1% incidence): (1%)
Patients early prematurely withdrawn due to AEs (%) ([5]; Safety - All Patients Dosed): (13%)
Patients with AEs (%) ([5]; Safety - All Patients Dosed): (76%)
Patients with AEs leading to death (%) ([5]; Safety - All Patients Dosed): (5%)
Patients with serious AEs (SAEs) (%) ([5]; Safety - All Patients Dosed): (34%)
Patients with study drug-related AEs (%) ([5]; Safety - All Patients Dosed): (30%)
Patients with HbA1C ≧ 7% (%) ([6]; Baseline (In-Hospital visit prior to randomization), all patients dosed): 24%
Patients with HbA1C ≧ 7% (%) ([6]; Diabetes at enrollment, n = 1098, Baseline): 57%
Patients with HbA1C ≧ 7% (%) ([6]; Diabetes at enrollment, n = 1098, Final Visit): 42%
Patients with HbA1C ≧ 7% (%) ([6]; Diabetes at enrollment, n = 1098, Month 4): 41%
Patients with HbA1C ≧ 7% (%) ([6]; Diabetes at enrollment, n = 1098, Month 8): 44%
Patients with HbA1C ≧ 7% (%) ([6]; Diabetes at enrollment, n = 1098, Month 16): 48%
Patients with HbA1C ≧ 7% (%) ([6]; Final Visit, all patients dosed): 17%
Patients with HbA1C ≧ 7% (%) ([6]; Month 4, all patients dosed): 17%
Patients with HbA1C ≧ 7% (%) ([6]; Month 8, all patients dosed): 18%
Patients with HbA1C ≧ 7% (%) ([6]; Month 16, all patients dosed): 20%
Patients with HbA1C ≧ 7% (%) ([6]; No Diabetes at enrollment, n = 2170, Baseline): 6%
Patients with HbA1C ≧ 7% (%) ([6]; No Diabetes at enrollment, n = 2170, Final Visit): 6%
Patients with HbA1C ≧ 7% (%) ([6]; No Diabetes at enrollment, n = 2170, Month 4): 5%
Patients with HbA1C ≧ 7% (%) ([6]; No Diabetes at enrollment, n = 2170, Month 8): 6%
Patients with HbA1C ≧ 7% (%) ([6]; No Diabetes at enrollment, n = 2170, Month 16): 7%
HbA1c ([6]; at 4 months, 4306 patients with serial measurements, least-square means): 5.9%
HR for worsening of hyperglycemia ([6]; diabetic patients, ranolazine vs placebo): 0.63
HbA1c after decline (declined to) [6, 11]: 6.8
HbA1c before decline (declined from) [6, 11]: 7.2
Patients achieving HbA1c<7% ([6]; patients with DM, at 4 months): 59%
HR for new fasting glucose >110 mg/dL or HbA1c≧6% ([6]; patients without DM, ranolazine vs placebo): 0.68
Incidence (Kaplan-Meier estimate) of death from any cause ([7]; 30 days): 1.8%
Incidence (Kaplan-Meier estimate) of death or CV hospitalization ([7]; 30 days): 9.2%
Incidence (Kaplan-Meier estimate) of death from any cause ([7]; 60 days): 2.2%
Incidence (Kaplan-Meier estimate) of death or CV hospitalization ([7]; 60 days): 15.0%
Incidence (Kaplan-Meier estimate) of death from any cause ([7]; 180 days): 3.4%
Incidence (Kaplan-Meier estimate) of death from any cause ([7]; 360 days): 5.3%
Incidence (Kaplan-Meier estimate) of death from any cause ([7]; 540 days): 7.0%
Pts with events: death from any cause ([7]; All Patients Dosed, n = 3268): 172
Pts with events: first occurrence of death or CV hospitalization ([7]; All Patients Dosed, n = 3268): 1037
Endpoint-defining events: Death (%) ([7]; death or CV hospitalization endpoint, n = 3268): 10.7%
Endpoint-defining events: CV hospitalization (%) ([7]; human, in vivo): 89.3%
Symptomatic documented arrhythmias (% of patients) ([7]; human, in vivo): 3.0%
HR for total mortality ([7]; ranolazine vs placebo): 0.99
